These results are taken from patent publication US20100197789A1, “ANTI-OBESITY AGENT AND USE THEREOF” (National University Corporation Nagoya University, priority 2006, published 2010).

One experiment deals with db/^+m mice. The experiment can be described thus: Food intake amount and body weight, 5 week-continuous oral administration, non-obese db/+m mice. It counts as in vivo, mouse. The settings on record: (±)-baclofen 2.7 mg/dl in drinking water, 5 weeks. Here is the method:
5 week-old male C57BL/KsJ-db/^+m mice (db/^+m mice: body weight 19 to 23 g, Japan SLC, Inc.) were purchased and individually fed in tip cages. To the db/^+m mice, normal pellet diet (CE-2) was administered under free water intake and free food intake. A body weight and a food intake amount over 24 hours were measured every day from the start of feeding. On day 3 after the start of feeding, blood was taken from an orbit after 6 hour-fasting and a blood glucose level and a blood insulin concentration were measured. The db/^+m mice were divided into two groups (10 mice per each group) so that a body weight, a 24 hour-food intake amount, a blood glucose level, and a blood insulin concentration were equal, and defined to be a control group and a baclofen treated group. After division into the groups, from day 5 after the start of feeding, (±)-baclofen was dissolved in drinking water and 5 week-continuous oral administration was started in the baclofen treated group. (±)-baclofen was dissolved in drinking water at a concentration of 2.7 mg/dl used in the high concentration treated group in the experiment of db/db mice. A food intake amount and a body weight of the db/^+m mice were measured over time, and a rectal temperature was measured 5 weeks after the start of the administration. Blood was taken after the 5-week administration of (±)-baclofen, and the db/^+m mice were sacrificed by cervical luxation.
5 week-old male C57BL/KsJ-db/db mice (db/db mice: body weight 19 to 25 g, Japan SLC, Inc.) were purchased and individually fed in tip cages. Normal pellet diet (CE-2) was administered to the db/db mice under free water intake and free food intake. A body weight and a food intake amount over 24 hours were measured every day from the start of feeding. On day 3 after the start of feeding, blood was taken from an orbit after 6 hour-fasting and a blood glucose level and a blood insulin concentration were measured. The db/db mice were divided into three groups (10 mice per each group) so that a body weight, a 24 hour-food intake amount, a blood glucose level, and a blood insulin concentration were equal and defined to be a control group, an SKF97541 treated group and a 3-APPA treated group. SKF97541 and 3-APPA were dissolved in drinking water at respective concentrations of 10×10^−6 M and 100×10^−6 M, and continuously orally administered for 5 weeks, and a food intake amount and a body weight were measured over time during the administration period. SKF97541 (10×10^−6 M) or 3-APPA (100×10^−6M) was dissolved in drinking water and orally administered also to db/^+m mice, and a food intake amount and a body weight were measured over time in the same manner.

The test system of a further experiment is db/db mice. In words: Food intake amount and body weight, 5 week-continuous oral administration in drinking water, db/db mice. The experiment is classed as in vivo, mouse. The following applies: for body weight increase / food intake amount: oral, 5 weeks. Here is the method: 5 week-old male C57BL/KsJ-db/db mice (db/db mice: body weight 19 to 25 g, Japan SLC, Inc.) were purchased and individually fed in tip cages. For the db/db mice, normal pellet diet (CE-2) was administered under free water intake and free food intake. A body weight and a food intake amount over 24 hours were measured every day from the start of feeding. On day 3 after the start of feeding, blood was taken from an orbit after 6 hour-fasting and a blood glucose level and a blood insulin concentration were measured. The db/db mice were divided into three groups (10 mice per each group) so that a body weight, a 24 hour-food intake amount, a blood glucose level, and a blood insulin concentration were equal, and defined to be a control group, a low concentration baclofen treated group, and a high concentration baclofen treated group. After division into the groups, from day 5 after the start of feeding, (±)-baclofen was dissolved in drinking water and 5 week-continuous oral administration to the baclofen treated groups was started. (±)-baclofen was dissolved in drinking water at a concentration of 1.1 mg/dl in the low concentration treated group and at a concentration of 2.7 mg/dl in the high concentration treated group. A food intake amount and a body weight were measured over time during the period of 5 week-administration of (±)-baclofen, blood was taken after the end of the 5-week administration, and the db/db mice were sacrificed by cervical luxation. Brains, epididymal white adipose tissues, subcutaneous white adipose tissues and brown adipose tissues were surgically removed. The brains and brown adipose tissues were frozen in dry ice and liquid nitrogen immediately after the removal and then preserved at −80° C. The epididymal white adipose tissues and subcutaneous white adipose tissues were measured in weights, and then fixed in 4% formaldehyde and preserved at 4° C.
5 week-old male C57BL/KsJ-db/db mice (db/db mice: body weight 19 to 25 g, Japan SLC, Inc.) were purchased and individually fed in tip cages. For the db/db mice, normal pellet diet (CE-2) was administered under free water intake and free food intake. A body weight and a food intake amount over 24 hours were measured everyday from the start of feeding. On day 3 after the start of feeding, blood was taken from an orbit after 6 hour-fasting and a blood glucose level and a blood insulin concentration were measured. […] After division into the groups, from day 5 after the start of feeding, R-baclofen and S-baclofen were dissolved in drinking water and 5 week-continuous oral administration was started. […] A food intake amount and a body weight were measured over time, and a rectal temperature was measured 5 weeks after the start of the administration. Blood was taken after the 5-week administration of baclofen, and the db/db mice were sacrificed by cervical luxation.
5 week-old male C57BL/KsJ-db/db mice (db/db mice: body weight 19 to 25 g, Japan SLC, Inc.) were purchased and individually fed in tip cages. Normal pellet diet (CE-2) was administered to the db/db mice under free water intake and free food intake. A body weight and a food intake amount over 24 hours were measured every day from the start of feeding. On day 3 after the start of feeding, blood was taken from an orbit after 6 hour-fasting, and a blood glucose level and a blood insulin concentration were measured. The db/db mice were divided into five groups (10 mice per each group) so that a body weight, a 24 hour-food intake amount, a blood glucose level, and a blood insulin concentration were equal, and defined to be a control group and baclofen treated groups. (±)-baclofen was dissolved in drinking water at respective concentrations of 4×10^−6 M, 10×10^−6 M, 40×10^−6 M, and 100×10^−6 M, and continuously orally administered to the baclofen treated groups for 5 weeks. A food intake amount, a body weight and a water-drinking amount were measured over time during the period of 5 week-administration of (±)-baclofen. […]

Setting [1] is: (±)-baclofen 1.1 mg/dl (low) and 2.7 mg/dl (high) in drinking water, vs control.
Where [2] appears, read: (±)-baclofen 1.1 and 2.7 mg/dl in drinking water, continued until end of experiment.
[3] abbreviates: (±)-baclofen 4×10^−6 M in drinking water (roughly 0.2 mg/kg/day).
The mark [4] stands for this setting: (±)-baclofen 10×10^−6 M in drinking water (roughly 0.5 mg/kg/day).
The mark [5] stands for this setting: (±)-baclofen 40×10^−6 M in drinking water (roughly 2 mg/kg/day).
The mark [6] stands for this setting: (±)-baclofen 100×10^−6 M in drinking water (roughly 5 mg/kg/day).

For the compound `NCC(CC(=O)O)c1ccc(Cl)cc1` (racemic) [(±)-baclofen, (RS)-4-amino-3-(4-chlorophenyl)butanoic acid], the body weight result in the experiment on db/^+m mice was “did not give significant effects”. Further, the food intake amount entry in the experiment with db/^+m mice is recorded as “did not give significant effects”; in the experiment with db/db mice (setting [1]), “significantly suppressed”; in the experiment with db/db mice (setting [3]), “Significant suppression”; in the experiment on db/db mice (setting [4]), “Significant suppression”; with db/db mice (setting [5]), “significantly suppressed”; with db/db mice (setting [6]) it was “significantly suppressed”. In addition, the body weight increase result with db/db mice (setting [1]) is reported as “significant body weight increase suppression”; in the experiment with db/db mice (setting [3]), “Significant suppression”; with db/db mice (setting [4]), “Significant suppression”; in the experiment on db/db mice (setting [5]) it was “significantly suppressed”; in the experiment with db/db mice (setting [6]) it was “significantly suppressed”. Further, the “time after start of administration from which body weight increase suppression was significant” value amounted to 1 week in the experiment with db/db mice (setting [2]); 4 weeks in the experiment with db/db mice (setting [3]); 2 weeks in the experiment on db/db mice (setting [4]); 1 week with db/db mice (setting [5]); 1 week with db/db mice (setting [6]). The “time after start of administration from which food intake suppression was significant” value is 1 week in the experiment on db/db mice (setting [2]); 4 weeks in the experiment on db/db mice (setting [3]); 2 weeks in the experiment on db/db mice (setting [4]); 1 week in the experiment with db/db mice (setting [5]); 1 week in the experiment on db/db mice (setting [6]).
